Data published in patent publication US11891625B2, “Methods and compositions relating to hematopoietic stem cell expansion, enrichment, and maintenance” (CHILDREN'S MEDICAL CENTER CORPORATION, priority 2015, dated 2024).

How the values were obtained:
human cord blood HSCs = assay: In vitro colony forming assay of human cord blood HSCs after 14 days of ex vivo culture; format: cell-based; conditions: 14 day cord blood HSC cultures
Procedure: FIG. 30A depicts colony counts and composition adjusted to represent the entire well following 14 days of ex vivo culture (Note: only a fraction of the well was added to methocult for colony formation). FIG. 30B depicts the frequency of myeloid colony types from 14 day cord blood HSC cultures.

[1] = tested on: murine HSCs (Lineage- Sca1+ ckit+ CD34-Flk2- CD150+ Fgd5 ZsGr+); assay: Ex vivo culture of 20 murine HSCs for 7 or 14 days (imaging, FACS of phenotypic HSCs); format: cell-based; conditions: 7 or 14 days ex vivo, versus DMSO
Procedure: Images taken at 4× magnification.
FIGS. 9A-9B show the expansion of phenotypic murine HSCs for 14 days ex vivo. 20 murine HSCs (Lineage− Sca1+ ckit+ CD34−Flk2−CD150+Fgd5⋅ZsGr+) were cultured in the presence of DMSO, LSD1 inhibitor IV (LS), Tgfbeta inhibitor RepSox (RS), and the combination of both (C2) for 14 days. This method supports maintenance and expansion of ZsGr+ HSCs. […] FIG. 9B depicts the number of Lineage− Sca1+ ckit+ CD34−Flk2−CD150+Fgd5⋅ZsGr+ HSCs in each condition after 14 days of ex vivo culture.
An optimal combination of compounds that can be used to expand, enrich, and maintain the hematopoietic stem cell functional potential of hematopoietic stem cells includes a histone demethylase inhibitor and an inhibitor of the TGFβ receptor Alk5. […] Images taken at 4× magnification. […] FIGS. 9A-9B show the expansion of phenotypic HSCs for 14 days ex vivo. 20 murine HSCs (LSK34-Flk2-150+ZsGr+) were cultured in the presence of DMSO, LSD1 inhibitor IV (LS), Tgfbeta inhibitor RepSox (RS), and the combination of both (C2) for 14 days. This method supports maintenance and expansion of ZsGr+ HSCs. […] FIG. 9B: Number of ZsGr+ HSCs in each condition after 14 days of ex vivo culture. […] A) Bright-field and ZsGr images of 20 HSCs cultured for 4.5 days ex vivo in the presence of LSD1 inhibitor IV (LS), Tgfbeta inhibitor RepSox (RS), and the combination of both (C2). […]

ZsGr+ murine HSCs = assay: 4.5 day ex vivo culture of 20 Fgd5 ZsGr+ HSCs (frequency and number of ZsGr+ cells); format: cell-based; conditions: 4.5 days ex vivo culture
From the text: FIG. 10A depicts bright-field and ZsGr images of 20 Fgd5⋅ZsGr+ HSCs cultured for 4.5 days ex vivo in the presence of LSD1 inhibitor IV (LS), Tgfbeta inhibitor RepSox (RS), and the combination of both (C2). […] FIG. 10C depicts the number of ZsGr+ and ZsGr− cells after 4.5 day cultures.
An optimal combination of compounds that can be used to expand, enrich, and maintain the hematopoietic stem cell functional potential of hematopoietic stem cells includes a histone demethylase inhibitor and an inhibitor of the TGFβ receptor Alk5. […] Images taken at 4× magnification. […] FIGS. 9A-9B show the expansion of phenotypic HSCs for 14 days ex vivo. 20 murine HSCs (LSK34-Flk2-150+ZsGr+) were cultured in the presence of DMSO, LSD1 inhibitor IV (LS), Tgfbeta inhibitor RepSox (RS), and the combination of both (C2) for 14 days. This method supports maintenance and expansion of ZsGr+ HSCs. […] FIG. 9B: Number of ZsGr+ HSCs in each condition after 14 days of ex vivo culture. […] A) Bright-field and ZsGr images of 20 HSCs cultured for 4.5 days ex vivo in the presence of LSD1 inhibitor IV (LS), Tgfbeta inhibitor RepSox (RS), and the combination of both (C2). FIG. 10B: Frequency of ZsGr+ cells remaining following 4.5 days of ex vivo culture. FIG. 10C: Number of ZsGr+ (Green) and ZsGr− (Black) cells within 4.5 day cultures (See also FIGS. 11A-13F and 28A-32B).

[2] = tested on: murine HSCs (lineage-, ckit+, Sca1+, CD150+, CD48-, Fgd5ZsGr+); assay: Culture of 40 murine HSCs for 12 days with compound cocktail plus RG108 and/or UNC0638, flow cytometry; format: cell-based; conditions: cytokines plus cocktail incl. trichostatin A, plus either or both RG108 and UNC0638
Procedure: 40 murine HSCs (lineage−, ckit+, Sca1+, CD150+, CD48−, Fgd5ZsGr+) were cultured for 12 days in the presence of cytokines (SCF, TPO, and IL12) and a cocktail of compounds (Lithium chloride, nicotinamide, N-acetylcysteine, ascorbic acid, A83-01, and SB203580, trichostatin A) plus either or both DNA methyltransferase inhibitor (RG108) and G9a inhibitor (UNC0638). Flow cytometry plots of Fgd5+Lineage− cells from the indicated culture conditions are shown.
A series of experiments was conducted in order to determine the relative contribution of compounds that modulate particular pathways to the expansion of hematopoietic stem cells. FIGS. 21A-21B show the contribution of each compound/pathway in ability to maintain and expand phenotypic HSCs during ex vivo culture. […] 200 cord blood HSCs were cultured for 12 days in serum free media supplemented with cytokines (SCF, TPO, FLT3L, IL3) in the presence of the indicated chemical combinations (Tgfbeta inhibitor (A, A83-01), HDAC inhibitor (TSA, Trichostatin A), and LSD1 inhibitor (TC, Tranylcypromine)) or additionally supplemented with p38 inhibitor (p38i, SB203580) and analyzed by flow cytometry. FIG. 35A: Immunophenotype of the cells post-culturing, and FIG. 35B: quantification of immunophenotypic HSCs (Lineage− CD34+ CD45RA−CD38− CD90+CD49F+) cultured in the indicated conditions.

[3] = tested on: human mobilized peripheral blood CD34+ cells; assay: Culture of 3000 CD34+ enriched mobilized peripheral blood cells for 7 days with chemicals or combinations, flow cytometry; format: cell-based; conditions: combinations with A83-01, Tranylcypromine, SB203580
Procedure: 3000 CD34+ enriched mobilized peripheral blood cells were cultured for 7 days in serum free media supplemented with cytokines (SCF, TPO, FLT3L, IL3) in the presence of the indicated chemical combinations (Tgfbeta inhibitor (A, A83-01), pan-HDAC inhibitor (TSA, Trichostatin A), LSD1 inhibitor (TC, Tranylcypromine), p38 inhibitor (p38i, SB203580), HDAC1/2 inhibitor (Rom, Romidepsin)) and analyzed by flow cytometry. FIG. 41A depicts the immunophenotype of the cells, FIG. 41B depicts the percentage of indicated populations, and FIG. 41C depicts quantification of immunophenotypic HSCs (Lineage− CD34+ CD45RA−CD38− CD90+CD49F+) 7 days post-culturing in the indicated conditions.
3000 CD34+ enriched mobilized peripheral blood cells were cultured for 7 days in serum free media supplemented with cytokines (SCF, TPO, FLT3L, IL3) in the presence of the indicated chemical combinations (Tgfbeta inhibitor (A, A83-01), pan-HDAC inhibitor (TSA, Trichostatin A), LSD1 inhibitor (TC, Tranylcypromine), p38 inhibitor (p38i, SB203580), HDAC1/2 inhibitor (Rom, Romidepsin)) and analyzed by flow cytometry. FIG. 41A: immunophenotype of the cells, FIG. 41B: percentage of indicated populations, and FIG. 41C: quantification of immunophenotypic HSCs (Lineage− CD34+ CD45RA− CD38− CD90+CD49F+) 7 days post-culturing in the indicated conditions.

p38 MAPK = conditions: as described in U.S. Pat. No. 6,602,896; cited from earlier work
[4] = tested on: human CD34+ peripheral blood and cord blood hematopoietic stem cells; conditions: as described in the cited literature; cited from earlier work
[5] = tested on: murine HSCs (lineage-, ckit+, Sca1+, CD150+, CD48-, Fgd5ZsGr+); assay: Culture of 100 murine HSCs with compound cocktail plus VPA or TSA, day 7 flow cytometry; format: cell-based; conditions: cytokines plus cocktail (Lithium chloride, nicotinamide, N-acetylcysteine, ascorbic acid, A83-01, SB203580)
Procedure: 100 murine HSCs (lineage−, ckit+, Sca1+, CD150+, CD48−, Fgd5ZsGr+) were cultured in the presence of cytokines only (SCF, TPO, and IL12) in the absence of compounds (Standard), or additionally supplemented with a cocktail of compounds (Lithium chloride, nicotinamide, N-acetylcysteine, ascorbic acid, A83-01, and SB203580) plus either valproic acid (VPA) or trichostatin A (TSA), which are structurally distinct HDAC inhibitors. FIG. 22A depicts day 7 flow cytometric analysis and FIG. 22B depicts the proportion of Fgd5−ZsGreen+ Sca1+ cells for each replicate.
In addition to inhibitors of histone demethylation and TGFβ signaling, histone deacetylase inhibitors also promote the expansion, enrichment, and maintenance of hematopoietic stem cells ex vivo. […] 3000 CD34+ enriched mobilized peripheral blood cells were cultured for 7 days in serum free media supplemented with cytokines (SCF, TPO, FLT3L, IL3) in the presence of the indicated chemical combinations (Tgfbeta inhibitor (A, A83-01), pan-HDAC inhibitor (TSA, Trichostatin A), LSD1 inhibitor (TC, Tranylcypromine), p38 inhibitor (p38i, SB203580), HDAC1/2 inhibitor (Rom, Romidepsin)) and analyzed by flow cytometry. […]

SMILES: CN1CCN(C(=O)CN[C@@H]2C[C@H]2c2ccc(OCc3ccccc3)cc2)CC1 [LS]
- frequency of GEMM colonies (human cord blood HSCs): elevated frequency of most primitive GEMM colonies
- appearance of cultures (images at 4x magnification) [1]: more homogenous and less differentiated
- maintenance and expansion of ZsGr+ HSCs (ZsGr+ murine HSCs): supports maintenance and expansion of ZsGr+ murine HSCs

SMILES: O=C(O)[C@H](Cc1c[nH]c2ccccc12)N1C(=O)c2ccccc2C1=O [RG108, N-Phthalyl-L-tryptophan]
- heterogeneity of Fgd5 ZsGr+ cells with respect to CD48 and Sca1 expression [2]: reduces heterogeneity

SMILES: Cc1cccc(-c2n[nH]cc2-c2ccc3ncccc3n2)n1 [RS]
- frequency of GEMM colonies (human cord blood HSCs): elevated frequency of most primitive GEMM colonies
- maintenance and expansion of ZsGr+ HSCs (ZsGr+ murine HSCs): supports maintenance and expansion of ZsGr+ murine HSCs

SMILES: C/C=C1\NC(=O)[C@H]2CSSCC/C=C/[C@H](CC(=O)N[C@H](C(C)C)C(=O)N2)OC(=O)[C@H](C(C)C)NC1=O [Romidepsin]
- replacement of pan HDAC inhibitor in chemical combination for maintenance/expansion of human HSCs [3]: can replace the pan HDAC inhibitor Trichostatin A for efficient ex vivo maintenance/expansion of human HSCs

SMILES: Oc1ccc(-c2nc(-c3ccc(F)cc3)c(-c3ccncc3)[nH]2)cc1 [SB202190, 4(4-Fluorophenyl)-2-(4-hydroxyphenyl)-5-(4-pyridyl) 1H-imidazole]
- selectivity among p38 MAPK isoforms (p38 MAPK): selectively antagonize p38 MAPK α- and β-isoforms without disrupting the enzymatic activity of the γ- or δ-isoforms

SMILES: CC(C)n1cnc2c(NCCc3ccc(O)cc3)nc(-c3csc4ccccc34)nc21 [SR1]
- expansion and self-renewal of human CD34+ hematopoietic stem cells [4]: promotes expansion and self-renewal of human CD34+ peripheral blood and cord blood hematopoietic stem cells

SMILES: COc1cc2c(NC3CCN(C(C)C)CC3)nc(C3CCCCC3)nc2cc1OCCCN1CCCC1 [UNC0638]
- heterogeneity of Fgd5 ZsGr+ cells with respect to CD48 and Sca1 expression [2]: reduces heterogeneity

SMILES: CC(/C=C/C(=O)NO)=C\[C@@H](C)C(=O)c1ccc(N(C)C)cc1 [trichostatin A]
- maintenance of immunophenotypic HSCs by structurally distinct HDAC inhibitors [5]: function equivalently to maintain immunophenotypic HSCs

SMILES: CCCC(CCC)C(=O)O [valproic acid]
- maintenance of immunophenotypic HSCs by structurally distinct HDAC inhibitors [5]: function equivalently to maintain immunophenotypic HSCs
